Assays:
[1] = test system: collagen-induced arthritis; test: In Vivo Rat Collagen-Induced Arthritis Model; conditions: Lewis rat CIA; for days on which hind paw swelling in CIA rats was significantly reduced (t-test, p<0.05 vs. vehicle): paw volume by plethysmograph
Protocol: In Vivo Rat Collagen-Induced Arthritis Model.
Efficacy of IRAK4 compounds of the present invention was also evaluated in a rat in vivo model of rheumatoid arthritis (M. Hegen, J. C. Keith, Jr, M. Collins, C. L. Nickerson-Nutter, Ann. Rheum. Dis. 2008, 67, 1505-1515). An exemplary protocol for this in vivo model follows.
Female Lewis rats, approximately 7 weeks old, were immunized with an emulsion of type II collagen (CII) and incomplete Freund's adjuvant (IFA) on day 0 and received a boost of CII/IFA on day 7. Hind paw volume increase was taken by plethysmograph. Animals were randomly enrolled into treatment groups based on the development of disease. Beginning on day 11 post immunization, rats were enrolled into random treatment groups based on an increase in a single hind paw volume compared to day 7 post immunization baseline measurements.
Ten rats were enrolled per treatment group with the exception of the naive control group, which contained two rats. Day 0 was designated as the first treatment day, and paw measurements are taken daily by plethysmograph. The rats were weighed on a daily basis.
IRAK4 inhibitors are efficacious in the Lewis rat model of collagen-induced arthritis.

serum TNF = test: In Vivo Mouse LPS/D-Gal Challenge Model; conditions: oral, serum TNF vs. vehicle
Protocol: In Vivo Mouse LPS/D-Gal Challenge Model.
Efficacy of IRAK4 compounds of the present invention was also evaluated in an in vivo mouse model of endotoxin induced (Lipopolysaccharide (LPS)) inflammation. See: S. Copeland, H. W. Warren, S. F. Lowry, S. E. Calvano, and D. Remick, Clin. Diagn. Lab. Immnol. 2005, 12(1), 60-67. An exemplary protocol for this in vivo model follows.
Female C57/BL6 mice, 8 to 10 weeks old, are orally administered either vehicle or formulated IRAK-4 compound 1 hour prior to the challenge. Vehicle or IRAK4 compound is administered by oral gavage at a volume of 10 mL/kg. One hour post oral delivery of vehicle or compound, the animals are challenged with an intraperitoneal injection (IP) of a solution containing 1 μg/mL LPS and 80 mg/mL D-gal. Each mouse is injected with […] of the solution, for a final challenge dose of 100 ng LPS and 8 mg D-gal. Ninety minutes post LPS/D-gal challenge, animals are euthanized and blood collected. Blood is allowed to clot at room temperature and serum is separated by centrifugation and stored at −80° C. for analysis. Serum TNF and IL-6 are measured by Meso Scale Discovery (MSD) multiplex platform.
The groups consisted of N=10 animals/group. Naïve animals and vehicle control groups were run with each study. Mean cytokine data was plotted and students T-test was performed to calculate significance (t-test, p<0.05 vs. vehicle) of IRAK4 treated group vs. vehicle treated group. Percent inhibition of cytokine induction was calculated for IRAK4 treated group vs. vehicle treated group.
Table 4 contains data from multiple studies with columns for Compound, Dose in mg/kg (mpk) and % inhibition of serum TNF. In cases where doses of certain compounds were repeated in multiple experiments, the average percent inhibition of TNF and standard deviation is shown in the table.

[2] = molecular target: human IRAK4 FL (Full Length) (Homo sapiens (Human), UniProt Q9NWZ3); test: IRAK4 Enzymatic DELFIA Assay, Protocol A; type: biochemical; conditions: 0.6 mM ATP (KM)
Chain of human IRAK4 FL (Full Length) (Q9NWZ3 whole entry): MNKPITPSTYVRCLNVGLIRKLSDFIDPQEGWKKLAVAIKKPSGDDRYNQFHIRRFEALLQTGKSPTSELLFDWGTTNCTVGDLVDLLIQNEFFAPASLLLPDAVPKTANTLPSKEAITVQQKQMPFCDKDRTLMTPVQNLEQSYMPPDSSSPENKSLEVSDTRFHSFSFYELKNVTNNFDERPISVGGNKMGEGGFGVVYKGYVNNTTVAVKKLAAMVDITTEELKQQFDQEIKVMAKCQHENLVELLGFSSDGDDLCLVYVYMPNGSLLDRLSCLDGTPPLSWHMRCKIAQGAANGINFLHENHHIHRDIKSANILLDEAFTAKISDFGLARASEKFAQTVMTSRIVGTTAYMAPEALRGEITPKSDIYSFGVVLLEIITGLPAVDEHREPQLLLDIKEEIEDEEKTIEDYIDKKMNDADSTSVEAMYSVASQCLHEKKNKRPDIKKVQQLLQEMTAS

SMILES: Cc1ccc(-n2nc(C(C)(C)C)cc2NC(=O)Nc2ccc(OCCN3CCOCC3)c3ccccc23)cc1 [BIRB796, reference compound]
- days on which hind paw swelling in CIA rats was significantly reduced (t-test, p<0.05 vs. vehicle) ([1]; 30 mg/kg PO, QD, positive control (p38 inhibitor)): Day 1-Day 8

SMILES: CC(C)Oc1cc2c(OC[C@@H]3CCC(=O)N3)nccc2cc1C(N)=O [Example 26, 1-{[(2S)-5-oxopyrrolidin-2-yl]methoxy}-7-(propan-2-yloxy)isoquinoline-6-carboxamide]
- hind paw swelling (delta paw volume) ([1]; 10 mg/kg PO, BID): transiently significant reduction in hind paw swelling only on Day 5 and Day 6
- days on which hind paw swelling in CIA rats was significantly reduced (t-test, p<0.05 vs. vehicle) ([1]; 30 mg/kg PO, BID, therapeutic treatment for 8 days): Day 2-Day 8
- days on which hind paw swelling in CIA rats was significantly reduced (t-test, p<0.05 vs. vehicle) ([1]; 100 mg/kg PO, BID, therapeutic treatment for 8 days): Day 1-Day 8 (end)
- hind paw swelling (delta paw volume) ([1]; therapeutic treatment BID daily for 8 days, t-test p<0.05 vs. vehicle): reduced the hind paw swelling in CIA rats significantly

SMILES: COc1cc2c(OC[C@@H]3CCC(=O)N3)cccc2cc1C(N)=O [Example 173, 3-methoxy-5-{[(2S)-5-oxopyrrolidin-2-yl]methoxy}naphthalene-2-carboxamide]
- % inhib TNF (serum TNF; dose 30 mpk): 55%
- % inhib TNF (serum TNF; dose 100 mpk): 98%

SMILES: COc1cc2c(OC[C@H]3NC(=O)[C@@H](F)[C@H]3C)nccc2cc1C(N)=O [Example 189, 1-{[(2S,3S,4S)-4-fluoro-3-methyl-5-oxopyrrolidin-2-yl]methoxy}-7-methoxyisoquinoline-6-carboxamide]
- % inhib TNF (serum TNF; dose 30 mpk): 40%

SMILES: CC(C)Oc1cc2c(OC[C@@H]3C[C@@H](C4(O)COC4)C(=O)N3)nccc2cc1C(N)=O [Example 193, 1-{[(2S,4S)-4-(3-hydroxyoxetan-3-yl)-5-oxopyrrolidin-2-yl]methoxy}-7-(propan-2-yloxy)isoquinoline-6-carboxamide]
- IC50 [2]: 238 nM

SMILES: COc1cc2c(OC[C@@H]3C[C@](C)(F)C(=O)N3)cccc2cc1C(N)=O [Example 194, 5-{[(2S,4S)-4-fluoro-4-methyl-5-oxopyrrolidin-2-yl]methoxy}-3-methoxynaphthalene-2-carboxamide]
- % inhib TNF (serum TNF; dose 30 mpk): 76%
